This is an account of results in patent US9546188B2, “Complexes of germanium with amino acids and carboxylic acids and method for preparing same” (OBSCHESTVO S OGRANICHENNOI OTVETSTVENNOSTYU “WDS FARMA”, priority 2012, dated 2017).

Data set [1] relates to and malignant tumors of the uterus. The conditions noted are these: six patients, 100 mg orally twice daily; cited from earlier work.
Data set [2] deals with oval cancer and malignant tumors of the uterus. The conditions noted are these: cited from earlier work.
The conditions of data set [3]: room temperature.

Turning to `N[C@@H](CC(=O)O)C(=O)O.[Ge]` [germanium compound with aspartic acid], in data set [1], the “exudate in the abdominal cavity or internal pelvic cavity” value is recorded as “five patients did not show exudate”. Moreover, the “infiltration in post-operational examination” value in data set [2] (examination one month later) is on record as “None patients showed infiltration”. The health of patients entry in data set [2] (six patients, 100 mg orally as 10% solution twice daily, tumors removed surgically) is given as “noticeable improvement in health”. In data set [2] (six patients, 100 mg orally twice daily), the toxic side effects result is listed as “no toxic side effects”.

Compound `O=C(O)CCCCCCCC(=O)O` [azelaic acid] returned a water solubility in data set [3] of 0.2%.
